Values of other authors, collected in patent publication US20060189586A1, “Pharmaceutical compositions comprising active vitamin D compounds” (priority 2003, published 2006).

Settings: in vivo

| SMILES | Hypercalcemic effect compared to calcitriol |
| --- | --- |
| C=C1/C(=C\C=C2/CCC[C@]3(C)C([C@H](C)CC#CC(C)(C)O)=CC[C@@H]23)C[C@@H](O)C[C@@H]1O [Ro23-7553] | reduced hypercalcemic effect |
| C=C1/C(=C/C=C2\CCC[C@]3(C)C([C@H](C)CC#CC(O)(C(F)(F)F)C(F)(F)F)=CC[C@@H]23)C[C@@H](O)C[C@@H]1O [Ro24-5531] | reduced hypercalcemic effect |
